The results in this text go back to patent publication US12171229B2, “Heteroaryl-triazole and heteroaryl-tetrazole compounds as pesticides” (BAYER AKTIENGESELLSCHAFT, priority 2018, dated 2024).

Each structure is given as a SMILES string.

Holding throughout (assay type): in vivo
The test system of assay [1] is Aedes aegypti strain MONHEIM. Nature of the assay: Aedes aegypti test (AEDSAE surface treatment & contact assay). The conditions noted are these: 24 hours after contact, read-out: efficacy (mortality); for mortality at 4 mg/m2: surface concentration 4 mg/m^2, exposure 30 minutes; for mortality at 20 mg/m2: surface concentration 20 mg/m^2, exposure 30 minutes. In short, it runs like this:
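Compound dissolved in acetone (2 mg/ml) with 2000 ppm rapeseed oil methyl ester, applied to glazed tile and dried; adult strain MONHEIM mosquitoes exposed 30 minutes. Percent mortality scored 24 hours after contact.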

Assay [2] deals with Ctenocephalides felis. Nature of the assay: Ctenocephalides felis oral test. The conditions noted are these: 48 h, 100 ppm in cattle blood, after 2 days, adult unfed cat fleas. Put shortly: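 Compound dissolved in DMSO and diluted in cattle blood to test concentration, offered to ~20 unfed adult fleas via a parafilm-sealed blood chamber held at 37° C (fleas at room temperature). Kill recorded at 2 days as % mortality.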

The next assay concerns Myzus persicae. The assay can be described thus: Myzus persicae oral test. To be noted: 120 h, 4 ppm, after 5 days. In short, it runs like this:
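Aphid mortality (%) was recorded 5 days after a mixed Myzus persicae population began sucking, through parafilm, on compound solutions (acetone stock diluted with water) combined with sugar-supplemented IPL41 medium.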

For assay [3], the system named is Culex quinquefasciatus strain P00. Nature of the assay: Culex quinquefasciatus test (CULXFA surface treatment & contact assay). To be noted: 24 hours after contact, read-out: efficacy (mortality); for mortality at 4 mg/m2: surface concentration 4 mg/m^2, exposure 30 minutes; for mortality at 20 mg/m2: surface concentration 20 mg/m^2, exposure 30 minutes. In short, it runs like this:
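Compound dissolved in acetone (2 mg/ml) with 2000 ppm rapeseed oil methyl ester, applied to glazed tile and dried; adult C. quinquefasciatus strain P00 exposed to surface for 30 minutes. Mortality (%) scored 24 hours after contact.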

Assay [4] has as its system Ctenocephalides felis. Nature of the assay: Ctenocephalides felis in-vitro contact test, adult cat flea. To be noted: 5 μg/cm^2 (=500 g/ha), after 48 hours, adult cat fleas, read-out: efficacy (fleas dead or moribund). In short, it runs like this: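 Compound in acetone coated onto inner walls of glass tubes, e.g. 900 ppm giving 5 μg/cm². After drying, 5–10 adult C. felis added per tube and held at room temperature. At 48 h, fleas unable to escape a 45–50 °C heating plate within 5 min scored dead/moribund, giving % efficacy.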

Assay [5] concerns Musca domestica strain WHO-N. Nature of the assay: Musca domestica test (MUSCDO surface treatment & contact assay). To be noted: 24 hours after contact, read-out: efficacy (mortality); for mortality at 4 mg/m2: surface concentration 4 mg/m^2, exposure 30 minutes; for mortality at 20 mg/m2: surface concentration 20 mg/m^2, exposure 30 minutes. Put shortly: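 Adult WHO-N flies exposed for 30 minutes on a glazed tile coated with compound dissolved in acetone (2 mg/ml) with 2000 ppm rapeseed oil methyl ester, acetone evaporated. Percent mortality read 24 hours after contact.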

For a further assay, the system named is Boophilus microplus. Nature of the assay: Boophilus microplus injection test. The conditions noted are these: Rhipicephalus microplus, 168 h; 20 μg/animal injected into the abdomen; adult engorged female ticks; egg deposition after 7 days; read-out: efficacy (infertile eggs). In short, it runs like this: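 Efficacy, from 0% (all eggs fertile) to 100% (all infertile), was scored on eggs laid by five engorged adult females. Each female was injected intra-abdominally with 1 μl of compound solution in DMSO. Fertile egg laying was checked at 7 days, with uncertain eggs kept until hatching at about 42 days.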

For assay [6], the system named is Anopheles funestus strain FUMOZ-R. Nature of the assay: Anopheles funestus test (ANPHFU surface treatment & contact assay). The conditions noted are these: 24 hours after contact, read-out: efficacy (mortality); for mortality at 4 mg/m2: surface concentration 4 mg/m^2, exposure 30 minutes; for mortality at 20 mg/m2: surface concentration 20 mg/m^2, exposure 30 minutes. In short, it runs like this: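 Compound dissolved in acetone (2 mg/ml) with 2000 ppm rapeseed oil methyl ester and applied to a glazed tile. After acetone evaporation, adult FUMOZ-R mosquitoes were exposed to the dried surface for 30 min. Percent mortality was scored 24 h after contact.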

The subject of another assay is Nezara viridula. The assay can be described thus: Nezara viridula spray test. To be noted: 96 h, after 4 days, larvae on barley plants. In short, it runs like this: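 Mortality (%) was assessed at day 4, from 0% (no bugs dead) to 100% (all dead). The spray solution was compound diluted to test concentration in water with 1000 ppm emulsifier and applied to barley carrying southern green stink bug larvae.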

`C[C@H](NC(=O)c1cc(Cl)cc(SC(F)(F)F)c1)c1ncnn1-c1ccc(C#N)cn1` [Example I-042]: the mortality at 4 mg/m2 was 90 to 100% in assay [1], 90 to 100% in [3], 90 to 100% in assay [5] and 85 to 100% in assay [6]. In addition, the mortality at 20 mg/m2 in [1], in assay [3], in [5] and in assay [6] was 90 to 100% throughout. In addition, in the assay with Ctenocephalides felis [2], the mortality at 100 ppm came out at 100%. The compound further returned a mortality at 4 ppm in the assay with Myzus persicae of 100%. Further, the pest or weed control at 5 µg/cm2 in the assay on Ctenocephalides felis [4] was found to be 90%. The pest or weed control at 0.02 mg in the assay with Boophilus microplus was 100%. Also, in the assay on Nezara viridula, the mortality at 100 g/ha came to 100%. This compound yielded a mortality at 500 g/ha in the assay on Nezara viridula of 100%.
As to `C[C@H](NC(=O)c1cc(C(F)(F)F)cc(C(F)(F)F)c1)c1ncnn1-c1ccc(C#N)cn1` [Example I-052], the mortality at 4 mg/m2 was 90 to 100% in assay [1], 90 to 100% in assay [3], 90 to 100% in assay [5] and 85 to 100% in assay [6]. The mortality at 20 mg/m2 in assay [1], in assay [3] and in assay [5] was 90 to 100% in each case. The compound also showed a mortality at 100 ppm in the assay with Ctenocephalides felis [2] of 100%. This compound also yielded a mortality at 4 ppm in the assay with Myzus persicae of 100%. In addition, the pest or weed control at 5 µg/cm2 with Ctenocephalides felis [4] turned out to be 90%. For the same compound, the pest or weed control at 0.02 mg in the assay on Boophilus microplus is 100%. The mortality at 100 g/ha with Nezara viridula worked out at 100%. Also, the mortality at 500 g/ha with Nezara viridula stood at 100%.
For the compound `C[C@H](NC(=O)c1cc(Cl)cc(C(F)(F)F)c1)c1ncnn1-c1ccc(NC(=O)C2CC2)cn1` [Example I-034, 3-chloro-N-[(1S)-1-(1-{5-[(cyclopropylcarbonyl)amino]pyridin-2-yl}-1H-1,2,4-triazol-5-yl)ethyl]-5-(trifluoromethyl)benzamide], the results for the mortality at 4 mg/m2 in [1], in assay [3] and in [6] were 90 to 100%, 90 to 100% and 85 to 100%, respectively. Moreover, the mortality at 20 mg/m2 in assay [1], in [3] and in [5] was 90 to 100% throughout. In addition, the mortality at 100 ppm in the assay with Ctenocephalides felis [2] is 100%. This compound yielded a mortality at 4 ppm with Myzus persicae of 100%. For the same compound, in the assay with Ctenocephalides felis [4], the pest or weed control at 5 µg/cm2 came to 100%. Besides, the pest or weed control at 0.02 mg with Boophilus microplus was determined as 100%. This compound also yielded a mortality at 100 g/ha in the assay on Nezara viridula of 100%. In the assay with Nezara viridula, this compound yielded a mortality at 500 g/ha of 100%.
Turning to `C[C@H](NC(=O)c1cc(Cl)cc(C(F)(F)F)c1)c1ncnn1-c1cc(C#N)ccn1` [Example I-015], the mortality at 4 mg/m2 in [1] and in [3] was 90 to 100% in each case. Moreover, the mortality at 20 mg/m2 in assay [1], in assay [3], in assay [5] and in [6] was 90 to 100% in each case. For the same compound, the mortality at 100 ppm in the assay with Ctenocephalides felis [2] was found to be 100%. In the assay with Myzus persicae, this compound returned a mortality at 4 ppm of 100%. For the same compound, the pest or weed control at 5 µg/cm2 in the assay with Ctenocephalides felis [4] was 100%. Also, the pest or weed control at 0.02 mg with Boophilus microplus worked out at 100%. This compound also returned a mortality at 500 g/ha with Nezara viridula of 100%.
Consider `C[C@H](NC(=O)c1cc(Cl)cc(S(F)(F)(F)(F)F)c1)c1ncnn1-c1ccc(C#N)cn1` [Example I-048], for which the mortality at 4 mg/m2 in assay [1] lay within 90 to 100%; in assay [3] it was 90 to 100%; in assay [5], 90 to 100%; in [6], 85 to 100%. For the same compound, the mortality at 20 mg/m2 in assay [1], in [3] and in assay [5] was 90 to 100% in each case. The mortality at 100 ppm in the assay with Ctenocephalides felis [2] was 100%. Also, the mortality at 4 ppm in the assay with Myzus persicae worked out at 100%. Also, the pest or weed control at 5 µg/cm2 in the assay with Ctenocephalides felis [4] was determined as 100%. Moreover, in the assay on Boophilus microplus, the pest or weed control at 0.02 mg was 100%. Moreover, the mortality at 100 g/ha in the assay on Nezara viridula is 100%. This compound also yielded a mortality at 500 g/ha in the assay on Nezara viridula of 100%.

As usually defined, the mortality is the share of the test organisms that died.
